Results as given in patent US12516070B2, “Fused ring derivatives and use thereof in pharmacy” (priority 2020, dated 2026).
Read-outs that look alike come from different tables or passages of the source.

Legend:
[1] = system: influenza A virus A/PR/8/34 (H1N1); experiment: Influenza virus cytopathic effect (CPE) assay, A/PR/8/34 (H1N1); assay type: cell-based; details: MDCK cells, 5 days, CCK8, read-out: EC50, inhibitory activity against influenza A virus A/PR/8/34 (H1N1)
[2] = assay type: in vivo, Beagle dogs; details: Dog, PO, 1 mpk of 8B; concentration of 7B detected
Procedure: (§1) Experimental objectives: To evaluate the druggability of the compounds by measuring pharmacokinetic properties in different animal species.
(§2) Experimental materials: Sprague-Dawley strain rats, Beagle dogs, cynomolgus monkeys.
(§3) The animal pharmacokinetic properties of the compound after intravenous injection and oral administration were tested by standard protocols, in which the candidate compound was prepared as a clear solution (intravenous injection) or as a homogeneous suspension (oral administration), and administered as a single dose to the animals. The vehicles for intravenous injection and oral administration are dimethyl sulfoxide and polyethylene glycol (15)-hydroxystearate aqueous solution in certain proportions. Whole blood samples were collected within 24 hours, centrifuged at 3200 g for 10 minutes, and the supernatant was separated to obtain plasma samples. Quantitative analysis of plasma concentrations was performed by LC-MS/MS analysis method, and pharmacokinetic parameters such as peak concentration, peak time, clearance rate, half-life, and area under the drug-time curve were calculated.

[3] = system: influenza A virus strain A/PR8/34; experiment: Drug efficacy assay in mice, treatment model of influenza A; assay type: in vivo, mice (BALB/c); details: 30 mpk BID intragastric, day 2 to day 8
[4] = assay type: in vivo, cynomolgus monkeys; set-up: Tmax: unit not given here; details: Monkey, PO, 1 mpk of 8B; concentration of 7B detected
Procedure: as §1, §2, §3

[5] = assay type: in vivo; details: Mouse, PO, 10 mpk of 8B; concentration of 7B detected
Procedure: as §1, §2, §3

With `CN1C(=O)c2c(O)c(=O)ccn2N2C1CCOc1cc(F)c(F)cc1[C@H]2c1ccccc1` (stereo partly shown) [Compound 1A] the EC50 ([1]; Influenza A virus, 120 h) was 22 nM.
`O=C1c2c(O)c(=O)ccn2N2C(CCOc3cc(F)c(F)cc3[C@H]2c2ccccc2)N1C1CCC1` (stereo partly shown) [Compound 2A] showed an EC50 ([1]; Influenza A virus, 120 h) of 13 nM.
In the case of `O=C1c2c(O)c(=O)ccn2N2[C@H](c3ccccc3)c3ccccc3OCC[C@H]2N1C1CCC1` [Compound 3A], the EC50 [1] is reported as 37 nM.
In the case of `CC(C)N1C(=O)c2c(O)c(=O)ccn2N2C1CCOc1ccccc1[C@H]2c1ccccc1` (stereo partly shown) [Compound 4A], the EC50 ([1]; Influenza A virus, 120 h) is reported as 74 nM.
In the case of `COC(=O)OCOc1c2n(ccc1=O)N1[C@H](c3ccccc3)c3cc(F)c(F)cc3OCC[C@H]1N(C)C2=O` [Compound 8B], the AUC [2] is reported as 0.724 µM·h, the Cmax [2] is reported as 171 nM and the T1/2 [2] is reported as 4.4 h. For the same molecule, the Tmax [2] was 0.75 h, the “Change in body weight (Percentage of starting body weight)” value ([3]; Day 3) was −6.6 ± 1.1 Percentage of starting body weight and the Survival rate ([3]; Day 3) was 100%. For the same molecule, the “Change in body weight (Percentage of starting body weight)” value ([3]; Day 4) was −9.3 ± 0.8 Percentage of starting body weight, the Survival rate ([3]; Day 4) was 100% and the “Change in body weight (Percentage of starting body weight)” value ([3]; Day 5) was −8.9 ± 2.2 Percentage of starting body weight. The Survival rate ([3]; Day 5) was 100%, the “Change in body weight (Percentage of starting body weight)” value ([3]; Day 6) was −9.4 ± 1.9 Percentage of starting body weight and the Survival rate ([3]; Day 6) was 100%. The “Change in body weight (Percentage of starting body weight)” value ([3]; Day 7) was −7.7 ± 1.4 Percentage of starting body weight, the Survival rate ([3]; Day 7) was 100% and the “Change in body weight (Percentage of starting body weight)” value ([3]; Day 8) was −0.9 ± 0.8 Percentage of starting body weight. The Survival rate ([3]; Day 8) was 100%, the “Change in body weight (Percentage of starting body weight)” value ([3]; Day 9) was −0.5 ± 1.1 Percentage of starting body weight and the Survival rate ([3]; Day 9) was 100%. For the same molecule, the “Change in body weight (Percentage of starting body weight)” value ([3]; Day 10) was 0.5 ± 0.6 Percentage of starting body weight, the Survival rate ([3]; Day 10) was 100% and the “Change in body weight (Percentage of starting body weight)” value ([3]; Day 11) was 2.5 ± 0.6 Percentage of starting body weight. The Survival rate ([3]; Day 11) was 100%, the “Change in body weight (Percentage of starting body weight)” value ([3]; Day 12) was 2.9 ± 1.0 Percentage of starting body weight and the Survival rate ([3]; Day 12) was 100%. For the same molecule, the “Change in body weight (Percentage of starting body weight)” value ([3]; Day 13) was 2.4 ± 1.3 Percentage of starting body weight, the Survival rate ([3]; Day 13) was 100% and the “Change in body weight (Percentage of starting body weight)” value ([3]; Day 14) was 2.7 ± 1.4 Percentage of starting body weight. It also gave a Survival rate ([3]; Day 14) of 100%, an AUC [4] of 0.785 µM·h and a Cmax [4] of 163 nM. The T1/2 [4] was 3.6 h, the Tmax [4] was 3 and the AUC [5] was 0.93 µM·h. For the same molecule, the Cmax [5] was 309 nM, the T1/2 [5] was 1.3 h and the Tmax [5] was 1.2 h.
With `CN1C(=O)c2c(O)c(=O)ccn2N2C1CCOc1cc(F)c(F)cc1[C@H]2c1ccc(F)cc1` (stereo partly shown) [Compound 9A] the EC50 ([1]; Influenza A virus, 120 h) was 34 nM.
`CN1C(=O)c2c(O)c(=O)ccn2N2[C@H](c3ccccc3Br)c3cc(F)c(F)cc3OCC[C@@H]12` [Compound 18A] showed an EC50 ([1]; Influenza A virus, 120 h) of 11 nM.
`CN1C(=O)c2c(O)c(=O)ccn2N2[C@H](c3ccccc3)c3ccc(F)c(F)c3OCC[C@@H]12` [Compound 20A] gave an EC50 ([1]; Influenza A virus, 120 h) of 50 nM.
